Experimental data taken from patent US10772886B2, “CXCR-2 inhibitors for treating crystal arthropathy disorders” (ARDEA BIOSCIENCES, INC., priority 2016, dated 2020).
Read-outs that look alike come from different tables or passages of the source.

Assays:
[1] = in vivo; cited from earlier work
[2] = cited from earlier work
[3] = test system: rat air pouch model of crystal-induced arthropathy (MSU); test: Rat air pouch model, Example 9 (Compound 4 in combination with colchicine); assay type: in vivo
Experimental: Sodium hydroxide (40 g, Fisher Scientific) was dissolved in de-ionized water (100 mL, dH2O) to provide a 10N solution. […] The resulting clear solution was cooled to 4-8° C., resulting in the formation of crystals, which were isolated by filtration, washed three times with de-ionized wa[…]) and dried at 37° C. The dried mono sodium urate crystals were sifted into an air-tight container for storage. […] Methylcellulose (0.4 g, Sigma) was dissolved in de-ionized water (100 mL) to provide a 0.4% solution used as vehicle. […] Test compounds were suspended in vehicle to provide the desired concentrations, and diluted accordingly. […] The animals were in apparent good health with no clinical signs of disease or distress. The rats were placed in quarantine with daily inspections, ear notched for identification purposes and shaved at the nape of the neck. The rats were anesthetized (isoflurane), and the nape of the neck was cleansed with 70% isopropanol (Butler Animal Health Supply) followed by povidone-iodine solution (Ricca Chemical Co.). Sterile air (30 mL, 0.2 μm, Millipore) was injected subcutaneously using a 23 G×11⁄2 inch needle fixed to a 30 mL syringe. The rats were returned to routine housing with no adverse reactions observed. The rats were anesthetized (isoflurane), and the nape of the neck was cleansed with 70% isopropanol (Butler Animal Health Supply) followed by povidone-iodine solution (Ricca Chemical Co.). Sterile air (15 mL, 0.11 μm, Millipore) was injected subcutaneously using a 23 G×11⁄2 inch needle fixed to a 20 mL syringe. The rats were returned to routine housing with no adverse reactions observed. The rats were weighed and sorted into treatment groups based on average body weight. As appropriate, the rats were dosed orally with test compound or vehicle (saline alone). […] Thirty minutes after SC injection or two hours after PO dosing, MSU (15 mL) was injected into the air pouch using an 18 G×2 inch needle fitted to a 20 mL syringe. Control group was injected with 15 mL sterile saline (vehicle). The injection sites were closed (collodion, Macron) and the rats returned to their cages with no adverse effects observed. Four hours after MSU/saline injection, the rats were anesthetized and heparinized saline (5 mL, 10 U/mL) was injected into the air pouch. […] An aliquot of the exudate was transferred to green Eppendorf tubes for total white blood cell (WBC) measurement. After allowing the MSU crystals to settle out for ten minutes, an aliquot of the exudate was transferred to heparinized microtainer tubes (Becton Dickinson) for differential white blood cell counts. The remainder of the exudate was centrifuged and an aliquot of the supernatants was dispensed to labeled clear Eppendorf tubes and stored at -80° C. The rats were exsanguinated into pre-chilled serum separator tubes, processed to serum, and 0.5 mL aliquot was stored at -80° C. in labeled Eppendorf tubes. […] [table]

PBMCs = test: Cell migration (chemotaxis) assay, PBMC counts; assay type: cell-based; settings: 10 μM; MSU crystal conditioned media; FIG. 1B
Experimental: Primary blood monocytes (PMBC) were obtained from the lymphocyte layer (buffy coat) of peripheral blood from normal donors. Each leukopack (Interstate Blood Bank) was diluted with an equal volume of PBS, and 35 mL of blood preparation was over-laid onto 15 mL of Ficoll-Paque™ PLUS (GE Healthcare Bio-Sciences). Tubes were centrifuged at 700×g without breaks for 30 minutes at room temperature. The buffy coat interface was removed, added to PBS (40 mL), and centrifuged at 300×g. Any remaining erythrocytes in the cell pellet were lysed by incubating cells in red blood cell lysis buffer (10 mL, R&D Systems) for 10 minutes at room temperature. Following lysis, PBS (40 mL) was added and the cells centrifuged for 5 minutes at 200×g. The pellet was washed once with PBS and re-suspended in complete RPMI and seeded onto a BD Falcon™ 100 mm tissue culture dish (Cat. No. 353003). After one hour, the media was aspirated and the adherent cells (predominantly monocytes) were harvested using a cell scraper and used in chemotaxis assays. Chemotaxis was assayed in 48-well plates with BD Falcon FluoroBlok Multiwell inserts with 3 μm pores (Cat. No. 351161 or 351162) coated with hFN. […] Fluorescence emitted from cells that had migrated to the bottom surface of the insert was measured at various time points. Cells labeled with Calcein AM were read at 485/530 nm (Ex/Em) wavelength. […]

neutrophils = test: Cell migration (chemotaxis) assay, neutrophil counts; assay type: cell-based; settings: 10 μM; MSU-conditioned media; FIG. 1A
[4] = dog; cited from earlier work
[5] = cited from earlier work; remark: listed apart in the source
CXCR-2 = target: T1, CXCR-2 (Homo sapiens, UniProt P25025); settings: in vitro; cited from earlier work
T1 sequence (P25025 1-360): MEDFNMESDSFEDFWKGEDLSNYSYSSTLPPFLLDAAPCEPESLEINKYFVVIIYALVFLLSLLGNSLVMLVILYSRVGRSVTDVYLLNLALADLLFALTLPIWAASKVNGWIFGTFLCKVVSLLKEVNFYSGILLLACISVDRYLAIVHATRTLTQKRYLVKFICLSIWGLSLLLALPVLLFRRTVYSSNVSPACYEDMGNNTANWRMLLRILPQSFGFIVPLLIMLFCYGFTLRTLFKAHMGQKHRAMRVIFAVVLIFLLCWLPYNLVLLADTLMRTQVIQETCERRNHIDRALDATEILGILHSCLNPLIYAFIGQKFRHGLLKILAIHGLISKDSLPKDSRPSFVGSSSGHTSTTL

[6] = rat; cited from earlier work
[7] = 10 umol/kg PO + Colchicine 0.3 mpk SC, Group 10

COc1cc2c(c(OC)c1OC)-c1ccc(OC)c(=O)cc1[C@@H](NC(C)=O)CC2 [Colchicine, COLCHICINE, reference compound]
eliminated unchanged in the urine [1]: 10-20%
gastrointestinal side effects ([2]; lower dose regimen: 1.2 mg at onset of acute gout attack, then 0.6 mg after one hour): 24%
gastrointestinal side effects ([2]; standard dose regimen: 1.2 mg at onset of acute gout attack, then 0.6 mg every hour for 6 hours): 73%
Severe diarrhea, % of patients ([2]; standard dose regimen): 19%
vomiting, % of patients ([2]; standard dose regimen): 15%
Avg Exudate Vol ([3]; 0.3 mpk SC, Group 3): 12.4 mL
Avg Tot WBC ([3]; 0.3 mpk SC, Group 3): 120 ×10^6
Neutrophils ([3]; 0.3 mpk SC, Group 3): 101.9 ×10^6
Avg Exudate Vol ([3]; 0.5 mpk SC, Group 4): 8.8 mL
Avg Tot WBC ([3]; 0.5 mpk SC, Group 4): 58 ×10^6
Neutrophils ([3]; 0.5 mpk SC, Group 4): 42.7 ×10^6
Avg Exudate Vol ([3]; 1.0 mpk SC, Group 5): 5.6 mL
Avg Tot WBC ([3]; 1.0 mpk SC, Group 5): 16 ×10^6
Neutrophils ([3]; 1.0 mpk SC, Group 5): 9.8 ×10^6

CC[C@@H](Nc1c(Nc2cccc(C(=O)N(C)C)c2O)c(=O)c1=O)c1ccc(C)o1 [Compound 2, (R)-2-hydroxy-N,N-dimethyl-3-((2-((1-(5-methylfuran-2-yl)propyl)amino)-3,4-dioxocyclobut-1-en-1-yl)amino)benzamide]
inhibition in migration in PBMCs (PBMCs): significant inhibition in migration
inhibition of migration in neutrophils (neutrophils): significant inhibition of migration

C[C@@H](Oc1cc(NS(=O)(=O)N2CCC2)nc(SCc2cccc(F)c2F)n1)[C@@H](O)CO [Compound 3, N-(2-((2,3-difluorobenzyl)thio)-6-(((2R,3S)-3,4-dihydroxybutan-2-yl)oxy)pyrimidin-4-yl)azetidine-1-sulfonamide]
half-life [4]: long
solubility properties [5]: good
potency (CXCR-2): high
bioavailability [6]: 49%

CC1CN(S(=O)(=O)Nc2cc(O[C@H](C)[C@@H](O)CO)nc(SCc3ccc(F)cc3)n2)C1 [Compound 4, N-(6-(((2R,3S)-3,4-dihydroxybutan-2-yl)oxy)-2-((4-fluorobenzyl)thio)pyrimidin-4-yl)-3-methylazetidine-1-sulfonamide]
Avg Exudate Vol [3, 7]: 7.8 mL
Avg Tot WBC [3, 7]: 20 ×10^6
Neutrophils [3, 7]: 6.4 ×10^6
Avg Exudate Vol ([3]; 10.0 umol/kg PO, Group 6): 12.5 mL
Avg Tot WBC ([3]; 10.0 umol/kg PO, Group 6): 160 ×10^6
Neutrophils ([3]; 10.0 umol/kg PO, Group 6): 102.1 ×10^6
Avg Exudate Vol ([3]; 30.0 umol/kg PO, Group 7): 6.7 mL
Avg Tot WBC ([3]; 30.0 umol/kg PO, Group 7): 28.7 ×10^6
Neutrophils ([3]; 30.0 umol/kg PO, Group 7): 14 ×10^6
Avg Exudate Vol ([3]; 100 umol/kg PO, Group 8): 6 mL
Avg Tot WBC ([3]; 100 umol/kg PO, Group 8): 12 ×10^6
Neutrophils ([3]; 100 umol/kg PO, Group 8): 3.8 ×10^6
Avg Exudate Vol ([3]; 300 umol/kg PO, Group 9): 5.2 mL
Avg Tot WBC ([3]; 300 umol/kg PO, Group 9): 8.1 ×10^6
Neutrophils ([3]; 300 umol/kg PO, Group 9): 4.3 ×10^6
